{"source": "patent US20050221317A1", "about": "“Use of an epitope of vascular endothelial growth factor receptor kdr/flk-1” (AstraZeneca AB, priority 2002, published 2005)", "molecular_target": "T1, KDR/Flk-1 receptor epitope Y1214 (Homo sapiens, UniProt P35968)", "T1 construct": "host or cells: HUVEC (human umbilical vein endothelial cells)", "T1 sequence (P35968 20-1356)": "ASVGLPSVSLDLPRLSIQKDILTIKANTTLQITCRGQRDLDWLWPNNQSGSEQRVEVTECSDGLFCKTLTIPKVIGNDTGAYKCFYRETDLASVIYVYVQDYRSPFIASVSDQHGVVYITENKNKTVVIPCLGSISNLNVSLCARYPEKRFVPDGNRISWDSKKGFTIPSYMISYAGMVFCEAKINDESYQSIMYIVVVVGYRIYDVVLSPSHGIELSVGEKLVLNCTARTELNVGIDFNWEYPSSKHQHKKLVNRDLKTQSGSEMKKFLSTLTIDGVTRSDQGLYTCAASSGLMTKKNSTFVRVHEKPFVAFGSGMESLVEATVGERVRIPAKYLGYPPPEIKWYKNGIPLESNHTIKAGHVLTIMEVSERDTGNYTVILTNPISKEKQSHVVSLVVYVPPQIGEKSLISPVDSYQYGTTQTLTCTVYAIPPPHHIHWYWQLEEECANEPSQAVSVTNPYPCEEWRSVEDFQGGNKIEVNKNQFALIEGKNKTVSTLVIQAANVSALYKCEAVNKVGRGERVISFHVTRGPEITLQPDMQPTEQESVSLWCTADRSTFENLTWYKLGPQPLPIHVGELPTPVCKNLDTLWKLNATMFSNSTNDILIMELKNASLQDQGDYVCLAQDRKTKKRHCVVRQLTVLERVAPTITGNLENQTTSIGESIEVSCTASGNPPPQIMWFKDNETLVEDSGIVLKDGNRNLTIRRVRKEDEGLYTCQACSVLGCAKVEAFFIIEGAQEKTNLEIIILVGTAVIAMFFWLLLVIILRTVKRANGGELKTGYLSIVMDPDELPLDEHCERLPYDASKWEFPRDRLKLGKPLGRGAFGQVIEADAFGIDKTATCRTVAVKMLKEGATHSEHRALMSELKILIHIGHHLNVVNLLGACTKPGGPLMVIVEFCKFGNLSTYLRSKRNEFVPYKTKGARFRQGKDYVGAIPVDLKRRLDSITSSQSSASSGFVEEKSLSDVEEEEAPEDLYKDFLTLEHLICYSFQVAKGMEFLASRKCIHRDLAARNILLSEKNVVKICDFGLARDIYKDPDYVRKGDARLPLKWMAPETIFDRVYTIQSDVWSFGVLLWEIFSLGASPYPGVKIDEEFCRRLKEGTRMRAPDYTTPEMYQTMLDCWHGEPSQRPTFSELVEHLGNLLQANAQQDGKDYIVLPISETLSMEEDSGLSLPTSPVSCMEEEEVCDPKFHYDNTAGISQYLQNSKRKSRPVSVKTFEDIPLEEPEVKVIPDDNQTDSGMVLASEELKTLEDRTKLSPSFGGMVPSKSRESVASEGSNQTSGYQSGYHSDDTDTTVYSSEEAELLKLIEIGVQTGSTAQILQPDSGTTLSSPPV", "test": "Phosphorylation of the Y1214 epitope of KDR/Flk-1 in VEGF-treated HUVECs (Western blot with anti-Y1214 antibody)", "format": "cell-based", "conditions": "VEGF-treated HUVEC cell lysate, 0.007-5.0 uM compound, FIG. 1", "experimental": "HUVECs were obtained from TCS Cellworks, Buckingham, UK (Catalogue number ZHS 8965) and cultured in Large Vessel Endothelial Cell Basal Medium+recommended 5 supplements obtained from TCS Cellworks (catalogue numbers ZHM 2951 and ZHS 8965). Cells were used when close to confluence in 3×75 cm^2 tissue culture flasks. Prior to treatment with inhibitor cells were cultured overnight in Basal Medium without supplements.\nHUVECS were treated with inhibitors as follows. […] After 82 minutes 50 ng/ml VEGF was added to the cells and the cells incubated for a further 8 minutes at 37° C. After this further incubation the culture medium was removed from the cells and the cells lysed with 2.5 ml sample buffer [Sample buffer: 4 parts NuPage sample buffer (Novex, NP0007, Invitrogen, Paisley, Scotland) to 1 part distilled water]. The lysate was collected, 3 μl of β-mercaptoethanol added and heated to 95° C. for 10 minutes to ensure complete reduction and denaturation. The lysates can be stored at −20° C. until analysed.\nLysates were analysed using SDS polyacrylamide gel electrophoresis (PAGE) to separate the proteins within the lysates. […]\nNitrocellulose membranes were incubated for 1 hour in 5% solution of dried, skimmed milk powder in PBST [Marvel/PBST] at room temperature. […] The light from this is detected by photographic film, for example Kodak Biomax ML."}
{"smiles": "COc1cc2c(Oc3ccc4[nH]c(C)cc4c3F)ncnc2cc1OCCCN1CCCCC1", "note": "[4[(4-fluoro-2-methyl-1H-indol-5-yl)oxy]-6-methoxy-7-(3-piperidin-1-ylpropoxy)quinazoline]", "values": [{"measurement": "phosphorylation of the Y1214 epitope", "value": "dose dependent decrease in phosporylation"}]}
